Assay results as given in patent publication US11111218B2, “Crystalline form of 5-amino-2,3-dihydrophthalazine-1,4-dione” (METRIOPHARM AG, priority 2016, dated 2021).

Conditions: TG-DSC
Description: Upper trace: Mass loss determined by TG. Lower trace: Heat flow determined by DSC

Nc1cccc2c(=O)[nH][nH]c(=O)c12 [Form II, 5-amino-2,3-dihydrophthalazine-1,4-dione]
thermal stability up to (crystalline solid): up to 320±1 °C
solid state transformation to other forms (until thermal degradation of the crystalline compound sets in): no solid state transformation to other forms is observed
